Data: PMC7366380, “Discovery of a Potent and Selective Covalent Inhibitor and Activity-Based Probe for the Deubiquitylating Enzyme UCHL1, with Antifibrotic Activity” (Journal of the American Chemical Society, 2020)
Values joined by “and” are separate entries in the source; they are usually repeats but may differ in a detail not shown here. Identical values can stand only once.

How the values were obtained:
Assay in all cases: In-cell proteome-wide competitive ABPP, HEK293: other DUBs and proteins
[1] = target: DUBs and other proteins in HEK293 cells (Homo sapiens, UniProt Q6P2Q9); conditions: replicates A-C; for Log2 reporter intensity values: PRPF8: competition with ABP 2, DMSO substract (FC); for Log2 reporter intensity values: PRPF8, DMSO subtracted
[2] = target: DUBs and other proteins in HEK293 cells (Homo sapiens, UniProt O00487); conditions: replicates A-C; for Log2 reporter intensity values: PSMD14: competition with ABP 2, DMSO substract (FC); for Log2 reporter intensity values: PSMD14, DMSO subtracted
[3] = target: T1, DUBs and other proteins in HEK293 cells (Homo sapiens, UniProt P40818); conditions: for Log2 reporter intensity values: USP8: competition with ABP 2, DMSO substract (FC), replicates A-B; for Log2 reporter intensity values: USP8, DMSO subtracted
T1 sequence (P40818 1-1118): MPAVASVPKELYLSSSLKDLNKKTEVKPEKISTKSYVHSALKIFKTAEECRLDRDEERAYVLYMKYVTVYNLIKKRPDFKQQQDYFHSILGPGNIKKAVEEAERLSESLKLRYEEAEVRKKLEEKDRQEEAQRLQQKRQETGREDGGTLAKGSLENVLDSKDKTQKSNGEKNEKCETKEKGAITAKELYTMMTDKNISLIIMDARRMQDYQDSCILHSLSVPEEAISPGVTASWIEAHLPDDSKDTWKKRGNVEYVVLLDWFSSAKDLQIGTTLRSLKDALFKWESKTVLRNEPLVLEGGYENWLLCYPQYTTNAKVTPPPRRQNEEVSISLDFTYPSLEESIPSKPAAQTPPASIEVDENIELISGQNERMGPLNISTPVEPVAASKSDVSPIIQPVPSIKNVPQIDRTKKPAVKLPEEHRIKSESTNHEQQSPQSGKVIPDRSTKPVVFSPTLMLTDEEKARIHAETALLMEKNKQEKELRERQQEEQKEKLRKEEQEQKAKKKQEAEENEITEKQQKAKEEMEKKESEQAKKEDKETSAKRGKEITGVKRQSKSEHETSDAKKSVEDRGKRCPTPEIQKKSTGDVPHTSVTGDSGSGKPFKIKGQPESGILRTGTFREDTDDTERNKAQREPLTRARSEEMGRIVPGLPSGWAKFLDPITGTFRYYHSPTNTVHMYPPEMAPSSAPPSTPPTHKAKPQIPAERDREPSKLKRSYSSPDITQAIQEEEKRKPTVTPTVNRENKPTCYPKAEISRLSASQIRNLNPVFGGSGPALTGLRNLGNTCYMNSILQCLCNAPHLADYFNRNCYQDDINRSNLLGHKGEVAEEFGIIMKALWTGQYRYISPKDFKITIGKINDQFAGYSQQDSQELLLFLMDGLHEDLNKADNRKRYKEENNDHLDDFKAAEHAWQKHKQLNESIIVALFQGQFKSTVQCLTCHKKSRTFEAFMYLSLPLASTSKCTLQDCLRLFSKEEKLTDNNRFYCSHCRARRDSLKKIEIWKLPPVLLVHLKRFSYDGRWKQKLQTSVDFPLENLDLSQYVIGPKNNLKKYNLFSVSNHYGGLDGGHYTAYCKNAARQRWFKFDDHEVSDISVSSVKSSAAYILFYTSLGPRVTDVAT

[4] = target: T2, DUBs and other proteins in HEK293 cells (Homo sapiens, UniProt Q9Y4E8); conditions: replicates A-C; for Log2 reporter intensity values: USP15: competition with ABP 2, DMSO substract (FC); for Log2 reporter intensity values: USP15, DMSO subtracted
T2 sequence (Q9Y4E8 1-981): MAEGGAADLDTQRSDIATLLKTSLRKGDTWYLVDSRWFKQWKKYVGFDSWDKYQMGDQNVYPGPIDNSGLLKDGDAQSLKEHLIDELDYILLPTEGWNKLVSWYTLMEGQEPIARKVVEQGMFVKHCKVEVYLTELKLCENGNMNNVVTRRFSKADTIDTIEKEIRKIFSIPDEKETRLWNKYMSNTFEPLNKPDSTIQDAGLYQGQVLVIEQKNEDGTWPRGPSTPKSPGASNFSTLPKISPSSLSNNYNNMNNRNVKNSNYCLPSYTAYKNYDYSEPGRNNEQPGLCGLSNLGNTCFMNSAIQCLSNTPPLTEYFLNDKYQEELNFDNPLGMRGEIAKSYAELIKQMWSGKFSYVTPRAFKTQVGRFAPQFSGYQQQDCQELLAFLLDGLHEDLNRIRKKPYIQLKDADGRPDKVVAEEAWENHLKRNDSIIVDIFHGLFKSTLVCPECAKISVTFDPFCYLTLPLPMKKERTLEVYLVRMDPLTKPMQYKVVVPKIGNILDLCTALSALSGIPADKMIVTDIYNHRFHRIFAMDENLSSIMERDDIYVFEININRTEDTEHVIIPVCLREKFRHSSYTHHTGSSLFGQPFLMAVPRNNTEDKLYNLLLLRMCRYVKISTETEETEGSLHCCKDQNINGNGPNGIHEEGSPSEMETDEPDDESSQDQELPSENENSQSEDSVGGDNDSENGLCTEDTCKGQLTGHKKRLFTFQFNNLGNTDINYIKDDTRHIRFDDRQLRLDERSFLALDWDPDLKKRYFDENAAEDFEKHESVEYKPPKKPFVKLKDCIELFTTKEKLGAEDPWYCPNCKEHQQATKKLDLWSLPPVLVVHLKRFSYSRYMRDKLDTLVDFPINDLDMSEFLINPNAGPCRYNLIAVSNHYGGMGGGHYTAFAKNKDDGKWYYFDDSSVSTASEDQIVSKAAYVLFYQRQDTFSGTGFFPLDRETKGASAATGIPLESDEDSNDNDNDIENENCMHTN

[5] = target: DUBs and other proteins in HEK293 cells (Homo sapiens, UniProt Q92905); conditions: for Log2 reporter intensity values, COPS5: TMT replicates; for Log2 reporter intensity values: COPS5: competition with ABP 2, DMSO substract (FC); for Log2 reporter intensity values: COPS5 / Log2 reporter intensity values: replicates A-C; for Log2 t-test Difference / Log2 reporter intensity values: COPS5
Chain of DUBs and other proteins in HEK293 cells (Homo sapiens, UniProt Q92905) (Q92905 whole entry): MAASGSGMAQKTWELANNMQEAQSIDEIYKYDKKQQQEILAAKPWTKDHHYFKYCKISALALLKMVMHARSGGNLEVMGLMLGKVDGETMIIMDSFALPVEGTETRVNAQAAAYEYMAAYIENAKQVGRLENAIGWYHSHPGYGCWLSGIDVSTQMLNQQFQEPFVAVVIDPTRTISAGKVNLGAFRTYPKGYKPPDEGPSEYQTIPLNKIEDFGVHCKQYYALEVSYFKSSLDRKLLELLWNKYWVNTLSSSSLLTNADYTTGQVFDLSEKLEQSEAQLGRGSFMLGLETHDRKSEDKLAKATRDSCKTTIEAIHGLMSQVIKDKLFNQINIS

Chain of DUBs and other proteins in HEK293 cells (Homo sapiens, UniProt O00487) (O00487 whole entry): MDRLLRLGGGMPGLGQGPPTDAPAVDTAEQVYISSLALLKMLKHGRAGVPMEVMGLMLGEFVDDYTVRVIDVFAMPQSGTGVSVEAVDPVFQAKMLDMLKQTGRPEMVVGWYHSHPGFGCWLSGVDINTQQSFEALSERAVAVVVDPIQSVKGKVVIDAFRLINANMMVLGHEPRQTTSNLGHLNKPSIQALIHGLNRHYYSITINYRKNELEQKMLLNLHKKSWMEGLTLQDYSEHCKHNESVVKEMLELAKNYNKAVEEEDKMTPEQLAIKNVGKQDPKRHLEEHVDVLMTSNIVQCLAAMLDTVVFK

Log2 reporter intensity values: PRPF8 ([1]; 3 at 1 μM): 0.9503 and 0.8885 and 0.9546
Log2 reporter intensity values: PRPF8 ([1]; 3 at 4 μM): 0.9411 and 0.9829 and 0.9624
Log2 reporter intensity values ([1]; 3_1 μM): -0.0499 and -0.1118 and -0.04563
Log2 reporter intensity values ([1]; 3_4 μM): -0.05909 and -0.0173 and -0.03782
Log2 reporter intensity values ([1]; 3 at 1 μM): -0.07348 and -0.1706 and -0.06701
Log2 reporter intensity values ([1]; 3 at 4 μM): -0.08751 and -0.02483 and -0.05526
Log2 reporter intensity values: PSMD14 ([2]; 3 at 1 μM): 1.063 and 1.033 and 1.055
Log2 reporter intensity values: PSMD14 ([2]; 3 at 4 μM): 1.048 and 1.127 and 1.122
Log2 reporter intensity values ([2]; 3_1 μM): 0.06036 and 0.03045 and 0.0523
Log2 reporter intensity values ([2]; 3_4 μM): 0.04582 and 0.1244 and 0.1197
Log2 reporter intensity values ([2]; 3 at 1 μM): 0.08818 and 0.04699 and 0.07719
Log2 reporter intensity values ([2]; 3 at 4 μM): 0.06829 and 0.1725 and 0.1665
Log2 reporter intensity values: USP8 ([3]; 3 at 1 μM): 0.95 and 1.134
Log2 reporter intensity values: USP8 ([3]; 3 at 4 μM): 0.8355 and 0.9159
Log2 reporter intensity values ([3]; 3_1 μM, replicates A-B (C NaN)): -0.05241 and 0.1313
Log2 reporter intensity values ([3]; 3_4 μM, replicates A-B (C NaN)): -0.167 and -0.08651
Log2 reporter intensity values ([3]; 3 at 1 μM, replicates A-C): -0.07394 and 0.1811
Log2 reporter intensity values ([3]; 3 at 4 μM, replicates A-C): -0.2593 and -0.1267
Log2 reporter intensity values: USP15 ([4]; 3 at 1 μM): 1.093 and 1.008 and 1.068
Log2 reporter intensity values: USP15 ([4]; 3 at 4 μM): 1.017 and 0.9783 and 1.019
Log2 reporter intensity values ([4]; 3_1 μM): 0.09224 and 0.007674 and 0.06804
Log2 reporter intensity values ([4]; 3_4 μM): 0.01634 and -0.02192 and 0.0187
Log2 reporter intensity values ([4]; 3 at 1 μM): 0.1276 and 0.0114 and 0.09532
Log2 reporter intensity values ([4]; 3 at 4 μM): 0.02376 and -0.03158 and 0.02709
Log2 reporter intensity values, COPS5 ([5]; 1 μM 3 (60 min) + 20 nM ABP 2 (10 min), All values): 0.001825 and 0.1477 and 0.03353
Log2 reporter intensity values, COPS5 ([5]; 1 μM 3 (60 min) + 20 nM ABP 2 (10 min), DMSO subtracted): 0.05994 and 0.2058 and 0.09165
Log2 reporter intensity values, COPS5 ([5]; 4 μM 3 (60 min) + 20 nM ABP 2 (10 min), All values): -0.03978 and -0.2063 and -0.1486
Log2 reporter intensity values, COPS5 ([5]; 4 μM 3 (60 min) + 20 nM ABP 2 (10 min), DMSO subtracted): 0.01834 and -0.1481 and -0.09052
Log2 reporter intensity values: COPS5 ([5]; 3 at 1 μM): 1.042 and 1.153 and 1.066
Log2 reporter intensity values: COPS5 ([5]; 3 at 4 μM): 1.013 and 0.9024 and 0.9392
Log2 t-test Difference ([5]; 3 - 1 μM): -0.04319
Log2 t-test Difference ([5]; 3 - 4 μM): -0.2358
Log2 reporter intensity values ([5]; 3_1 μM, DMSO subtracted): 0.04234 and 0.1532 and 0.0655
Log2 reporter intensity values ([5]; 3_4 μM, DMSO subtracted): 0.01271 and -0.09767 and -0.0609
Log2 reporter intensity values ([5]; 3 at 1 μM, DMSO subtracted): 0.05994 and 0.2058 and 0.09165
Log2 reporter intensity values ([5]; 3 at 4 μM, DMSO subtracted): 0.01834 and -0.1481 and -0.09052
Structure (SMILES): N#CN1CCC[C@@H]1C(=O)N1CCc2c(-c3c[nH]c4ncccc34)cccc21 [Compound 3]
